# Reference: publication PMC4974614, “Human native kappa opioid receptor functions not predicted by recombinant receptors: Implications for drug design” (Scientific Reports, 2016)
# Several values for one entry are separate records, joined by “and”; a condition that tells them apart may be missing. Equal values may be shown once. Where a name gives a salt, the structure may show the parent alone. Read-outs that look alike come from different tables or passages of the source.
# Assays:
# human isolated colon [1] = experiment: EFS-evoked cholinergically-mediated contractions of human isolated colon; type: cell-based; details: for inhibition at 1 µM: read-out: % inhibition of contractions evoked during EFS; for effect alone on responses to EFS: phentolamine 1 μM and propranolol 1 μM together, descending colon
# human descending colon [2] = experiment: Carbachol-evoked contractions of human descending colon
# mouse κ receptor [3] = biological target: T1, mouse κ receptor (Mus musculus, UniProt P33534); experiment: cell-based; details: HEK293, read-out: TR-FRET Emax (%)
# mouse isolated colon = experiment: EFS-evoked cholinergically-mediated contractions of mouse isolated colon; type: cell-based; details: for Emax / EC50: Mus musculus; for Emax: read-out: Emax (%), inhibition of EFS-evoked after-contractions; for EC50: read-out: pEC50, inhibition of EFS-evoked after-contractions (converted)
# [4] = system: tetrodotoxin-sensitive Na+ channels; details: read-out: EC50, block of tetrodotoxin-sensitive Na+ channels; cited from earlier work
# [5] = human, in vivo; cited from earlier work
# human descending colon [6] = experiment: cells; type: cell-based
# mouse proximal colon = experiment: Carbachol-induced contractions of mouse proximal colon; type: cell-based
# Description: Changes in muscle tension were recorded using isometric force transducers (AD Instruments, Chalgrove, UK) on a data acquisition system (Biopac Systems Inc., Goleta, CA, USA). The strips were given 1 g tension and allowed to recover for 30 min during which time the bath solutions were changed every 15 min; this initial tension was previously determined as the optimum required to maximally detect EFS-evoked responses in both regions (data not shown). Electrical Field Stimulation (EFS) was applied at 5 Hz using a maximally-effective voltage (80 V) and 0.5 ms bipolar pulse duration […], given for 30 s every 120 s, for at least 1 hour before drug addition. These parameters of EFS consistently evoked nerve-mediated responses with a good signal-to-noise ratio over spontaneous muscle activity. After obtaining consistent responses, drugs were applied non-cumulatively to separate tissues (20 min contact); changes in resting muscle tension and responses to EFS were measured. Finally, any effects of the drugs on carbachol-induced contractions were examined by first obtaining consistent responses to a submaximally-effective concentration of carbachol (1 μM; 27 ± 9% max, 5 min contact; n = 4). The compounds were then added 5 min before application of carbachol (1 μM, 5 min contact), followed by washing, and this process was repeated at least once more.
# human κ receptor [7] = biological target: T2, human κ receptor (Homo sapiens, UniProt P41145); experiment: cell-based; details: for Emax: HEK293, read-out: BRET Emax (%)
# [8] = in vivo; cited from earlier work
# [9] = system: K+ channels in mouse epithelia; details: read-out: IC50, block of K+ channels; cited from earlier work
# human κ receptor [10] = biological target: T2, human κ receptor; type: cell-based
# human κ receptor [11] = biological target: T2, human κ receptor; experiment: cell-based; details: for Emax: HEK293, read-out: TR-FRET Emax (%)
# mouse κ receptor [12] = biological target: T1, mouse κ receptor; type: cell-based
# μ-opioid receptors = details: cited from earlier work
# mouse κ receptor [13] = biological target: T1, mouse κ receptor; experiment: cell-based; details: HEK293, read-out: BRET Emax (%)
# [14] = system: mouse κ receptors in COS-1 cells; details: read-out: IC50, radioligand binding; cited from earlier work
# [15] = biological target: Recombinant human receptor; details: cited from earlier work
# [16] = biological target: Recombinant human receptor; details: cited from earlier work; remark: listed apart in the source
# human isolated colon [17] = details: cited from earlier work
# κ receptor = details: cited from earlier work
# T1 sequence (P33534 whole entry): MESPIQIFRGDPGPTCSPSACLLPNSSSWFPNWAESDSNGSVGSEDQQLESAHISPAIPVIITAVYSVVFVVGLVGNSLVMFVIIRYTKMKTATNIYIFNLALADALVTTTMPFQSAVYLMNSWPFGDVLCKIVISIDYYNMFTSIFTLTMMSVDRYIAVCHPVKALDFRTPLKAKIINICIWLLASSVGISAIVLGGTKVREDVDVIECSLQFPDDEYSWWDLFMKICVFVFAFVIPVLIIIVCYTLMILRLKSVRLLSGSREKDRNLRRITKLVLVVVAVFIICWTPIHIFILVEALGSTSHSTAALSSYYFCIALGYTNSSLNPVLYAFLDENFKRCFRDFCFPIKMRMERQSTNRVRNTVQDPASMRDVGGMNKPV
# T2 sequence (P41145 whole entry): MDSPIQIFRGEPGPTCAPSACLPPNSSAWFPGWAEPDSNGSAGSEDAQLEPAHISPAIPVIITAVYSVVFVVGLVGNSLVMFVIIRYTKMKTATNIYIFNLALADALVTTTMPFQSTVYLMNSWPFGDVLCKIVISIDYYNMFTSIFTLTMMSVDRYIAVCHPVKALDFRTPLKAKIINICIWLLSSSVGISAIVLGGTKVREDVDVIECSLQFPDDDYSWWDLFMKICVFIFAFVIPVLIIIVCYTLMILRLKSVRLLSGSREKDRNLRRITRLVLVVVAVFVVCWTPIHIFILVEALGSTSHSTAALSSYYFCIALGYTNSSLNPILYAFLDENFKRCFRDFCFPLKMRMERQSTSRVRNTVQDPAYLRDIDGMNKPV
compound,measurement,setting,value
CN(C(=O)C(c1ccccc1)c1ccccc1)[C@H](CN1CC[C@H](O)C1)c1ccccc1 [Asimadoline],Time to max effect,human isolated colon [1],40 ± 4 min
same,effect on baseline muscle tension,human isolated colon [1],Neither asimadoline nor ICI204448 changed baseline muscle tension
same,time to maximum inhibition,human isolated colon [1],30 ± 5 min
same,inhibition at 1 µM,human isolated colon [1]; Homo sapiens,-29 ± 4%
same,effect on contractions evoked by carbachol 1 μM,human descending colon [2],−10 ± 9%
same,Emax,mouse κ receptor [3],96 ± 3%
same,reduction of contractions of the distal colon,mouse isolated colon,59 ± 13%
same,time taken to achieve maximum activity,mouse isolated colon,17 ± 3 min
same,Emax,mouse isolated colon,52 ± 7%
same,EC50,mouse isolated colon,7.94 nM
same,EC50,[4],8400 nM
same,effect on colonic transit or postprandial motility,[5],not to affect colonic transit or postprandial motility
same,maximum inhibition of the response to ICI204448 60 nM,human descending colon [6],19 ± 7%
same,IC50,"human descending colon [6]; Homo sapiens, read-out: pIC50, reduction of the response to ICI204448 60 nM (converted)",1.58 nM
same,effect on contractions induced by carbachol 1 μM,mouse proximal colon,5 ± 7
same,EC50,human κ receptor [7]; BRET pEC50,0.631 nM
same,Emax,human κ receptor [7],98 ± 5%
same,effect on sensation or pain caused by colonic distension,[8],reduced the sensation or pain caused by colonic distension
same,IC50,[9],23700 nM
same,BIAS,human κ receptor [10],0.60
same,EC50,human κ receptor [11],39.8 nM
same,Emax,human κ receptor [11],97 ± 2%
same,BIAS,mouse κ receptor [12],0.65
same,concentration activating μ-opioid receptors,μ-opioid receptors,3 µM
same,Emax,mouse κ receptor [13],99 ± 4%
CN(C(=O)Cc1ccc(Cl)c(Cl)c1)C(CN1CCCC1)c1cccc(OCC(=O)O)c1 (stereo not drawn) [ICI204448],Time to max effect,human isolated colon [1],13 ± 3 min
same,effect on baseline muscle tension,human isolated colon [1],Neither asimadoline nor ICI204448 changed baseline muscle tension
same,effect on relaxations evoked by EFS,human isolated colon [1],1 ± 7 % change from baseline EFS
same,"pEC50, inhibition of contractions during EFS",human isolated colon [1],8.0 ± 0.4
same,time to maximum inhibition,human isolated colon [1],7 ± 1 min
same,inhibition at 1 µM,human isolated colon [1]; Homo sapiens,-57 ± 10%
same,inhibition at 0.1 µM,"human isolated colon [1]; Homo sapiens, read-out: inhibition of EFS-evoked contractions",130 ± 29%
same,IC50,[14],6.6 nM
same,effect on contractions evoked by carbachol 1 μM,"human descending colon [2]; 100 nM, descending colon, no EFS",−9 ± 2%
same,Arrestin pEC50,[15],8.48 ± 0.06
same,biased activity towards the human κ receptor arrestin pathway,[15],only weak propensity for biased activity
same,Emax,mouse κ receptor [3],92 ± 4%
same,"Emax (%), inhibition of EFS-evoked after-contractions",mouse isolated colon,57 ± 7%
same,reduction of contractions of the distal colon,mouse isolated colon,70 ± 5%
same,time taken to achieve maximum activity,mouse isolated colon,7 ± 2 min
same,Emax,mouse isolated colon,49 ± 8%
same,EC50,mouse isolated colon,3.16 nM
same,G protein pEC50,[16],8.38 ± 0.09
same,effect on contractions induced by carbachol 1 μM,"mouse proximal colon; 1 μM, proximal colon",0 ± 5 % initial carbachol response
same,Emax,human κ receptor [7],100 ± 3%
same,Emax,human κ receptor [11],98 ± 2%
same,Emax,mouse κ receptor [13],90 ± 4%
"COC(=O)[C@@H](N)CCCNC(N)=N[N+](=O)[O-] [L-NAME, Nω-nitro-L-arginine methyl ester hydrochloride]",effect on relaxations during EFS,"human isolated colon [1]; 300 μM, ascending and descending colon",prevented
same,effect on EFS-evoked relaxations,"mouse isolated colon; 300 μM, proximal and distal colon",abolished
CN1[C@@H]2CC[C@H]1C[C@@H](OC(=O)C(CO)c1ccccc1)C2 (stereo partly drawn) [atropine],effect on contractions during EFS,human isolated colon [1],prevented
same,attenuation of after-contractions,human isolated colon [17],56 ± 12%
same,increase of EFS-evoked relaxations,mouse isolated colon,61 ± 13%
same,reduction of after-contractions,mouse isolated colon,81 ± 5%
C[N+](C)(C)CCOC(N)=O [carbachol],contraction as % of maximum contraction to carbachol,"human descending colon [2]; 1 μM, 5 min contact",~ 50%
same,contraction as % max,"mouse proximal colon; 1 μM, 5 min contact",27 ± 9 % max
CC[C@](COCc1cc(OC)c(OC)c(OC)c1)(c1ccccc1)N(C)C [fedotozine],selectivity for the κ receptor over other opioid receptors,κ receptor,~2 fold
Oc1ccc2c3c1O[C@H]1c4[nH]c5c(c4C[C@@]4(O)[C@@H](C2)N(CC2CC2)CC[C@]314)C[C@@]1(O)[C@H]2Cc3ccc(O)c4c3[C@@]1(CCN2CC1CC1)[C@H]5O4 [nor-binaltorphamine],effect by itself on contractions to EFS,human isolated colon [1],by itself did not affect contractions to EFS
same,intercept of Schild analysis,human isolated colon [1],−9.7
same,slope of Schild analysis,human isolated colon [1],0.53 ± 0.11
same,effect by itself on the response to EFS,mouse isolated colon,did not by itself change the response to EFS
same,effect on inhibition by ICI204448 and asimadoline,mouse isolated colon,antagonised
Cc1ccc(N(CC2=NCCN2)c2cccc(O)c2)cc1 [phentolamine],effect alone on responses to EFS,human isolated colon [1],2 ± 3 % change from baseline EFS
CC(C)NCC(O)COc1cccc2ccccc12 (stereo not drawn) [propranolol],effect alone on responses to EFS,human isolated colon [1],2 ± 3 % change from baseline EFS
NC1=N[C@H](O)[C@H]2[C@H]3O[C@]4(O)O[C@@H]([C@@H](O)[C@@]2(N1)[C@@H]4O)[C@]3(O)CO [tetrodotoxin],effect on responses evoked by EFS,human isolated colon [1],prevented
same,"effect on EFS-evoked responses (relaxation, after-contraction)",mouse isolated colon,prevented
Dynorphin 1-13,% inhibition of contractions evoked during EFS,human isolated colon [1],-30% and -35%
same,Time to max effect,human isolated colon [1],17 min and 11 min
same,Arrestin pEC50,[15],7.01 ± 0.07
same,G protein pEC50,[16],8.68 ± 0.07
